Results taken from US10328079B2, “[6R]-MTHF multiple bolus administration in 5-fluorouracil based chemotherapy” (Isofol Medical AB, priority 2017, dated 2019).
“And” between values parts separate entries of the source, which are not always exact repeats. Identical values can stand only once. “Also recorded” adds a separate entry of the source. Like-named read-outs stand apart in the source and are kept apart here.

Assays:
[1] = test system: solid tumors; details: cited from earlier work
[2] = test system: colorectal tumors; details: cited from earlier work
[3] = test system: advanced and recurring head and neck squamous cell cancer; details: 5-FU in combination therapies with platinum compounds; cited from earlier work
[4] = test system: colorectal cancer; details: cited from earlier work; for ORR: Phase IIb, first-line patients, in combination with 5-FU
[5] = Phase IIb, first-line patients, in combination with 5-FU; cited from earlier work
[6] = test system: previously untreated metastatic colorectal cancer; details: Phase II Trial; cited from earlier work
[7] = test system: pancreas cancer; details: CoFactor combined with 5-FU; cited from earlier work
[8] = test system: thymidylate synthase (TS); test: Historical group comparison study: incremental plasma dUrd (marker of TS inhibition) 24 h after 5-FU bolus plus folate; format: in vivo, human
Protocol: The elevation of plasma 2′-deoxyuridine (dUrd) is a marker of TS inhibition. (Ford et al. (2002) Clinical Cancer Research, 8(1): 103-109).
The historical group comparison study was conducted as follows:
All patients were treated with a standard dose of 500 mg 5-FU given as a bolus injection plus the respective folate [6R]-MTHF or LV, also given as bolus injections.
In Gothenburg (Sweden), for almost two decades, clinical, treatment and outcomes data on all patients with CRC have been collected at the local university hospital (Östra sjukhuset—Sahlgrenska Universitetssjukhuset). Plasma and tissue samples have been stored in a biobank under appropriate physical conditions for long term storage. The database and the biobank operate under the auspices of the relevant ethical and regulatory permissions. Patients having been treated with the standard 5-FU dose, 500 mg/m2 plus i.v. bolus LV, 60 mg/m2 were randomly drawn from the databank. For all patients, stored plasma samples were used for determination of dUrd.
Twenty-four patients with metastatic colorectal cancer (mCRC) treated with 5-FU plus 60 mg/m^2 LV were drawn at random from the database and levels of dUrd were determined at t0 and t24 from two treatment cycles for each patient and the mean values and standard deviations for the differences between t24 and t0 were calculated in the same way as for the [6R]-MTHF patients. Since LV is a “racemic” 50:50 mixture of the natural (S-formyl-tetrahydrofolate) and unnatural (R-formyl-tetrahydrofolate) isomers, the active isomer constitutes one half of the racemic LV doses given. The molecular weights for LV and [6R]-MTHF are very similar and therefore 60 mg of LV may be considered as equimolar with 30 mg of [6R]-MTHF.
All patients were enrolled in the ISO-CC-005 study and measured during two consecutive treatment cycles with 5-FU. Values for dUrd were measured immediately before injection of 5-FU (to) and after 24 hours (t24). Mean values and standard deviations for differences between t24 and to were calculated for the patients on each dose level of 30 and 60 mg/m^2 respectively.
The differences between all three groups were tested by means of the […] and thereafter the difference between the two equimolar groups LV 60 mg/m2 and 6R-MTHF 30 mg/m^2 was tested by means of the Mann-Whitney U test. P-values less than 0.05 were considered significant.
Plasma dUrd was determined by a method comprising liquid chromatography followed by tandem mass spectrometry broadly summarized as follows. Plasma samples were removed from −80° C. freezer, trichloroacetic acid was added to the plasma, and the samples mixed and centrifuged. The supernatant was filtered in a 10 kDa molecular weight cut-off membrane filter and again centrifuged for 30 min. The solution at the bottom of the tube was then ready for LC-MS/MS analysis. Calibration samples were prepared in the same way using blank plasma samples and different internal standard concentrations. The injection volume into LC-MS/MS was 40 μl. Deoxyuridine and chlorodeoxyuridine were ionized by electrospray negative mode. MS parameters were optimized for maximum response of all folates. A MS/MS acquisition method (multiple reaction monitoring) was utilized.

[9] = test system: stage IV colorectal cancer; test: ISO-CC-005 Phase I/II trial: tumor response according to RECIST 1.1; format: in vivo, human; details: for ORR (objective response rate): after 8 weeks' treatment, with 5-FU
Description: As used herein, the term ORR shall refer to the Objective Response Rate, i.e. the proportion of patients with reduction in tumor burden of a predefined amount.
Complete Response (CR): • Disappearance of all target lesions. Any pathological lymph nodes (whether target or non-target) must have reduction in short axis to <10 mm.
(Note: the appearance of one or more new lesions is also considered progression).
Stable Disease (SD): • Neither sufficient shrinkage to qualify for PR nor sufficient increase to qualify for PD, taking as reference the smallest sum diameters while on study. (Eisenhauer E A, Therasse P, Bogaerts J, Schwartz L H, Sargent D, Ford R, et al. New response evaluation criteria in solid tumors: revised RECIST guideline (version 1.1). Eur J Cancer. 2009 January; 45(2):228-47)
The safety and efficacy of [6R]-5,10-methylenetetrahydrofolate ([6R]-MTHF) is analyzed in an open-label, multiple-site, Phase I/II Dose Cohort Trial (ISO-CC-005) in combination with a fixed dose of 5-Fluorouracil (5-FU) alone or together with a fixed dose of Bevacizumab, Oxaliplatin or Irinotecan in patients with stage IV colorectal cancer. A maximum of 63 Stage IV CRC patients eligible for 1st, 2nd or 3rd line treatment are planned to be enrolled in this study disposed as follows: three to six patients in each dose cohort, and three additional patients in one dose cohort in each treatment arm according to the following study design (Table 1).
[6R]-5,10-Methylenetetrahydrofolic acid ([6R]-MTHF) is formulated as a lyophylised powder containing 100 mg per vial (calculated as free acid). Dosing: Rapid i.v. bolus injections at a fixed dose of 30, 60, 120 or 240 mg/m^2, will be administered approximately 30 minutes after administration of 5-FU on Day 1 and Day 2 in each treatment cycle in all dose cohorts of the study (i.e. regardless of treatment arm). The regimen will be repeated every second week for up to eight (8) cycles, i.e. up to sixteen (16) weeks.
5-FU (5-fluorouracil) is formulated as injection solution. Dosing: 5-FU will be administered as i.v. bolus injections on Day 1 and Day 2 in each treatment cycle. In Arm #2 and Arm #3 of the study, 5-FU will be administered approximately 60 minutes after start of Oxaliplatin or Irinotecan administration, respectively (see description below). The treatment will be repeated every second week for up to eight (8) cycles, i.e. up to sixteen (16) weeks.
ISO-CC-005 is an open clinical phase I/II tolerability and dose definition study designed to evaluate safety and define the [6R]-MTHF dose for continued development. It evaluates four doses of [6R]-MTHF in combination with 5-FU with or without the different combinations of irinotecan or oxaliplatin and bevacizumab in patients with metastatic Colorectal Cancer using 4 different protocols: • MOD+5-FU: [6R]-MTHF in combination with 5-FU only, similar to Nordic FLV protocol • MOD+FLIRI: [6R]-MTHF in combination with 5-FU and Irinotecan, similar to Nordic FLIRI protocol • MOD+FLOX: [6R]-MTHF in combination with 5-FU and Oxaliplatin, similar to Nordic FLOX protocol • MOFOX: [6R]-MTHF in combination with 5-FU and Oxaliplatin, similar to FOLFOX-6 protocol
In one of the treatment protocols (MOFOX) the total dose of [6R]-MTHF was divided into two i.v. bolus injections dispensed approximately 30 and 60 minutes after the initial administration of 5-FU bolus injection (at 0 minute), respectively.
3 patients in total had at this point been treated according to the MOFOX protocol.
By December 2017 the first-line patients were assessed again after 16 weeks of treatment (16 weeks is considered the standard schedule for cancer treatment according to clinical practice guidelines for ESMO (European Society for Medical Oncology)). Four (4) 1st line patients could not be followed for the additional 8 weeks' treatment due to study protocol formalities, and no further 1st line patients had been analysed at this point.

[10] = ISO-CC-005 Phase I/II trial: safety / adverse events; format: in vivo, human
Description: A maximum of 63 Stage IV CRC patients eligible for 1st, 2nd or 3rd line treatment are planned to be enrolled in this study disposed as follows: three to six patients in each dose cohort, and three additional patients in one dose cohort in each treatment arm according to the following study design (Table 1). ISO-CC-005 is an open clinical phase I/II tolerability and dose definition study designed to evaluate safety and define the [6R]-MTHF dose for continued development. It evaluates four doses of [6R]-MTHF in combination with 5-FU with or without the different combinations of irinotecan or oxaliplatin and bevacizumab in patients with metastatic Colorectal Cancer using 4 different protocols: • MOD+5-FU: [6R]-MTHF in combination with 5-FU only, similar to Nordic FLV protocol • MOD+[…] in combination with 5-FU and Irinotecan, similar to Nordic FLIRI protocol • MOD+FLOX: [6R]-MTHF in combination with 5-FU and Oxaliplatin, similar to Nordic FLOX protocol • MOFOX: [6R]-MTHF in combination with 5-FU and Oxaliplatin, similar to FOLFOX-6 protocol By September 2017 the gastrointestinal (GI) adverse effects (AEs) for in total 37 patients had been analyzed. Of the 37 patients, only 2 (two) patients (5.4%) reported a GI adverse event (defined as nausea, vomiting and/or dehydration) of grade 3 or greater.

[11] = biological target: Thymidylate Synthase (Lacticaseibacillus casei, UniProt P00469); details: cited from earlier work
Sequence of Thymidylate Synthase (P00469 whole entry): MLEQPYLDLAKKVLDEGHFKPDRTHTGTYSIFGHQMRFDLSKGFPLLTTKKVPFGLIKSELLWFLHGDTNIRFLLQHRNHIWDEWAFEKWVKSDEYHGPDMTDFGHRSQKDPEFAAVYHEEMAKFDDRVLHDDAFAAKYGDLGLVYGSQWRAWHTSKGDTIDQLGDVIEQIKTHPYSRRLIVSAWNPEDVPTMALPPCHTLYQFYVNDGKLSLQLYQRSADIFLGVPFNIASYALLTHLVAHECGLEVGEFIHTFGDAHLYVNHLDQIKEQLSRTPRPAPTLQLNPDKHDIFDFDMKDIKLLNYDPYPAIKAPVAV

[12] = of 8 first-line patients, 16 weeks
[13] = of 13 patients analyzed by August 2017, 8 weeks
[14] = of first 12 first-line patients, 8 treatment weeks

O=c1[nH]cc(F)c(=O)[nH]1 [5-FU, 5-fluorouracil]
overall response rate ([1]; 5-FU alone): 10-15%
response rate ([2]; 5-FU given as a monotherapy): around 10%
Response rates [3]: around 30%
survival time [3]: around 6 months

Nc1nc(=O)c2c([nH]1)NCC1CN(c3ccc(C(=O)N[C@@H](CCC(=O)[O-])C(=O)[O-])cc3)CN21.[Ca+2] (stereo partly drawn) [CoFactor, (dl)-5,10,-methylenepteroyl-monoglutamate calcium salt]
efficacy and safety compared with leucovorin ([4]; Phase IIb study, colorectal cancer): no significant differences
ORR [4]: 10.7%
patients reporting at least one AE of grade 3 or greater [5]: 7.7%
response rate [6]: 35%
clinical benefit, defined as stable disease or tumor response, patients [7]: 40%

Nc1nc2c(c(=O)[nH]1)N(C=O)C(CNc1ccc(C(=O)N[C@@H](CCC(=O)O)C(=O)O)cc1)CN2 (stereo partly drawn) [LV, 5-formyl tetrahydrofolic acid]
Mean (t24-t0) plasma dUrd ([8]; LV 60 mg/m^2 BSA (racemate; active compound 30 mg/m^2), bolus with 5-FU 500 mg/m^2, 24 hours, n=48): 48.7 pmol/mL
ORR [4]: 13.3%
patients reporting at least one AE of grade 3 or greater [5]: 3.3%
overall response rates ([1]; LV added to 5-FU): over 20%
response rate ([2]; Leucovorin (LV) added to 5-FU): 21%

Nc1nc2c(c(=O)[nH]1)N1CN(c3ccc(C(=O)N[C@@H](CCC(=O)O)C(=O)O)cc3)C[C@H]1CN2 [[6R]-MTHF, [6R]-5,10-methylenetetrahydrofolate]
ORR ([9]; 8 remaining first-line patients, 16 weeks of treatment): 63%
ORR (objective response rate) ([9]; 12 first-line patients group): 50%
first-line patients with progressive disease (PD) ([9]; 12 first-line patients, 8 weeks): none
ORR (objective response rate) ([9]; 13 patients (12 first-line + 1 second-line), RECIST 1.1): 54%
progression of solid tumors between 8 and 16 weeks after initializing treatment ([9]; [6R]-MTHF and 5-FU, treatment period of at least 8 weeks): no patient displayed tumor progression; also recorded: No statistically significant progression
clinical benefit, defined as stable disease or partial response, treated patients ([9]; [6R]-MTHF combined with 5-FU, colorectal cancer): > 90%
ORRs achieved with initial 5-FU followed by multiple IV boluses of [6R]-MTHF ([9]; colorectal cancer patients, boluses interspaced by about 10-60 minutes): 60-80% and 60-85%
patients with partial response (PR) ([9]; group treated with at least 60 mg/m2 [6R]-MTHF, 5 out of 7 patients, 8 weeks): 71%
patients showing partial response [9, 12]: 5 patients
patients showing stable disease [9, 12]: 3 patients
patients showing partial response [9, 13]: 7 patients
patients showing stable disease [9, 13]: 6 patients
patients showing partial response (PR) [9, 14]: 6 patients
patients showing stable disease [9, 14]: 6 patients
safety profile compared to other patients in the study or historical control ([10]; 12 first-line patients): no signs of an impaired safety profile
patients reporting a GI adverse event (nausea, vomiting and/or dehydration) of grade 3 or greater ([10]; 37 patients analyzed by September 2017 (2 patients)): 5.4%
toxicity of 5-FU when combined with [6R]-MTHF compared to 5-FU with other folate adjuvants ([10]; ISO-CC-005 results so far): reduced
Mean (t24-t0) plasma dUrd ([8]; [6R]-MTHF 30 mg/m^2 BSA bolus with 5-FU 500 mg/m^2, 24 hours, n=18): 74.7 pmol/mL
level of dUrd vs equimolar LV, together with 5-FU ([8]; [6R]-MTHF 30 mg/m^2 vs LV 60 mg/m^2, p=0.03): significantly higher
Mean (t24-t0) plasma dUrd ([8]; [6R]-MTHF 60 mg/m^2 BSA bolus with 5-FU 500 mg/m^2, 24 hours, n=16): 91.8 pmol/mL
TS inhibition from fixed doses of 5-FU vs [6R]-MTHF dose (dUrd) ([8]; dUrd measurements incl. 120 mg vs 240 mg, ISO-CC-005): dose dependent and flattens off att very high doses

Nc1nc2c(c(=O)[nH]1)N1CN(c3ccc(C(=O)N[C@@H](CCC(=O)O)C(=O)O)cc3)C[C@@H]1CN2 [[6S]-MTHF]
effect on the natural [6R]-isomer as co-substrate for TS [11]: partial competitive inhibitor
